Where a SMILES comes first, the peptide text is derived from it. [ ]: non-standard residue; d: D form. NMeF = CN[C@@H](Cc1ccccc1)C(=O)O; dNMeF = CN[C@H](Cc1ccccc1)C(=O)O; NMeL = CN[C@@H](CC(C)C)C(=O)O; dNMeL = CN[C@H](CC(C)C)C(=O)O; NMeNle = CCCC[C@H](NC)C(=O)O; NMeM = CN[C@@H](CCSC)C(=O)O; NMeV = CN[C@H](C(=O)O)C(C)C; NMeA = CN[C@@H](C)C(=O)O; Nle = CCCC[C@H](N)C(=O)O; dNMeA = CN[C@H](C)C(=O)O; Sar = CNCC(=O)O
details: Caco-2

| Structure (SMILES) | permeability in transwell assays |
| --- | --- |
| CC(C)C[C@@H]1NC(=O)[C@@H]2CCCN2C(=O)[C@H]2CCCN2C(=O)CN(C)C(=O)[C@@H](Cc2ccccc2)N(C)C(=O)[C@@H](CC(C)C)NC(=O)[C@@H](CC(C)C)N(C)C(=O)[C@@H]2CCCN2C(=O)[C@H](CC(C)C)N(C)C(=O)[C@H](CC(C)C)N(C)C1=O [Design D10.22, PRO LEU *LEU *LEU PRO *DLEU DLEU *DPHE *GLY DPRO] (cyclo(L[NMeL][NMeL]P[dNMeL][dL][dNMeF][Sar][dP]P)) | not permeable |
| CC(C)C[C@@H]1NC(=O)[C@@H]2CCCN2C(=O)[C@H]2CCCN2C(=O)[C@@H](CC(C)C)N(C)C(=O)[C@@H](Cc2ccccc2)N(C)C(=O)[C@@H](CC(C)C)NC(=O)[C@@H](CC(C)C)N(C)C(=O)[C@@H]2CCCN2C(=O)[C@H](CC(C)C)N(C)C(=O)[C@H](CC(C)C)N(C)C1=O [Design D10.23, PRO LEU *LEU *LEU PRO *DLEU DLEU *DPHE *DLEU DPRO] (cyclo(L[NMeL][NMeL]P[dNMeL][dL][dNMeF][dNMeL][dP]P)) | not permeable |

same assay, conditions: PAMPA

| Structure (SMILES) | PAMPA_Papp_Avg | PAMPA_R1 | PAMPA_R3 |
| --- | --- | --- | --- |
| CC(C)C[C@@H]1NC(=O)[C@@H]2CCCN2C(=O)[C@H]2CCCN2C(=O)CN(C)C(=O)[C@@H](Cc2ccccc2)N(C)C(=O)[C@@H](CC(C)C)NC(=O)[C@@H](CC(C)C)N(C)C(=O)[C@@H]2CCCN2C(=O)[C@H](CC(C)C)N(C)C(=O)[C@H](CC(C)C)N(C)C1=O [Design D10.22, PRO LEU *LEU *LEU PRO *DLEU DLEU *DPHE *GLY DPRO] (cyclo(L[NMeL][NMeL]P[dNMeL][dL][dNMeF][Sar][dP]P)) | BQL | BQL | BQL |
| CC(C)C[C@@H]1NC(=O)[C@@H]2CCCN2C(=O)[C@H]2CCCN2C(=O)[C@@H](CC(C)C)N(C)C(=O)[C@@H](Cc2ccccc2)N(C)C(=O)[C@@H](CC(C)C)NC(=O)[C@@H](CC(C)C)N(C)C(=O)[C@@H]2CCCN2C(=O)[C@H](CC(C)C)N(C)C(=O)[C@H](CC(C)C)N(C)C1=O [Design D10.23, PRO LEU *LEU *LEU PRO *DLEU DLEU *DPHE *DLEU DPRO] (cyclo(L[NMeL][NMeL]P[dNMeL][dL][dNMeF][dNMeL][dP]P)) | BQL | BQL | BQL |
| CC(C)C[C@@H]1NC(=O)[C@@H]2CCCN2C(=O)[C@@H](Cc2ccccc2)N(C)C(=O)[C@H](CC(C)C)N(C)C(=O)[C@H](CC(C)C)N(C)C(=O)[C@@H](CC(C)C)N(C)C(=O)[C@H](C)NC(=O)[C@H](C(C)C)NC(=O)CNC(=O)[C@H](Cc2ccccc2)NC1=O [Design D10.24, PHE GLY VAL ALA *DLEU *LEU *LEU *DPHE PRO LEU] (cyclo(A[dNMeL][NMeL][NMeL][dNMeF]PLFGV)) | BQL | BQL | BQL |
| CC[C@H](C)[C@@H]1NC(=O)[C@H](CCSC)N(C)C(=O)[C@H]2CCCN2C(=O)[C@H](CC(C)C)NC(=O)[C@@H](Cc2ccccc2)NC(=O)[C@@H]2CCCN2C(=O)[C@H]2CCCN2C(=O)[C@H]([C@@H](C)CC)NC(=O)[C@@H](CC(C)C)N(C)C(=O)[C@H](CC(C)C)N(C)C1=O [Design D10.36, ILE *LEU *DLEU ILE DPRO PRO DPHE LEU DPRO *MET] (cyclo([dF]L[dP][NMeM]I[NMeL][dNMeL]I[dP]P)) | BQL | BQL | BQL |
| CC[C@@H](C)[C@H]1NC(=O)[C@H](C(C)C)NC(=O)[C@H](Cc2ccccc2)NC(=O)[C@H](C)NC(=O)[C@@H]2CCCN2C(=O)[C@H]2CCCN2C(=O)[C@H]2CCCN2C(=O)[C@H](CC(C)C)N(C)C(=O)[C@@H](C)N(C)C(=O)[C@H](C(C)C)NC1=O [Design D10.38, VAL *DALA *LEU DPRO DPRO PRO ALA PHE VAL DILE] (cyclo(AFV[dI]V[dNMeA][NMeL][dP][dP]P)) | BQL | BQL | BQL |
| CCCC[C@@H]1NC(=O)[C@H](CC(C)C)NC(=O)[C@@H]2CCCN2C(=O)[C@H]2CCCN2C(=O)[C@@H](C)NC(=O)[C@H]2CCCN2C(=O)[C@@H](CC(C)C)NC(=O)[C@@H](C)N(C)C(=O)[C@H](CC(C)C)N(C)C(=O)[C@@H](C)N(C)C1=O [Design D10.40, MET *DALA *LEU *DALA DLEU DPRO DALA DPRO PRO LEU] (cyclo(L[Nle][dNMeA][NMeL][dNMeA][dL][dP][dA][dP]P)) | 7.09E-07 | 6.40E-07 | 6.95E-07 |
| CCCC[C@H]1C(=O)N[C@@H]([C@@H](C)CC)C(=O)N2CCC[C@H]2C(=O)N2CCC[C@@H]2C(=O)N[C@H](CC(C)C)C(=O)N[C@@H]([C@@H](C)CC)C(=O)N2CCC[C@@H]2C(=O)N[C@H](Cc2ccccc2)C(=O)N[C@@H](C(C)C)C(=O)N(C)[C@H](CC(C)C)C(=O)N1C [Design D10.44, VAL *DLEU *MET ILE PRO DPRO DLEU ILE DPRO DPHE] (cyclo(IP[dP][dL]I[dP][dF]V[dNMeL][NMeNle])) | BQL | BQL | BQL |
| CC[C@H](C)[C@@H]1NC(=O)[C@H](Cc2ccccc2)N(C)C(=O)[C@H]2CCCN2C(=O)[C@@H](CC(C)C)N(C)C(=O)[C@@H](Cc2ccccc2)NC(=O)[C@H](C(C)C)NC(=O)[C@H](CC(C)C)NC(=O)[C@H]2CCCN2C(=O)[C@H](CC(C)C)NC(=O)[C@@H]2CCCN2C1=O [Design D10.50, LEU VAL DPHE *DLEU DPRO *PHE ILE PRO LEU DPRO] (cyclo(IPL[dP]LV[dF][dNMeL][dP][NMeF])) | 6.28E-07 | 8.97E-07 | 6.88E-07 |
| CC[C@H](C)[C@@H]1NC(=O)[C@@H](CC(C)C)NC(=O)[C@H](CC(C)C)NC(=O)[C@H]2CCCN2C(=O)[C@@H]2CCCN2C(=O)[C@H](C)NC(=O)[C@H](Cc2ccccc2)N(C)C(=O)[C@@H](C(C)C)NC(=O)[C@H](Cc2ccccc2)N(C)C(=O)[C@@H](Cc2ccccc2)N(C)C1=O [Design D10.51, ILE *DPHE *PHE DVAL *PHE ALA PRO DPRO LEU DLEU] (cyclo(AP[dP]L[dL]I[dNMeF][NMeF][dV][NMeF])) | BQL | BQL | BQL |
| CC[C@H](C)[C@@H]1NC(=O)[C@@H]2CCCN2C(=O)[C@H](C)NC(=O)[C@@H](Cc2ccccc2)N(C)C(=O)[C@H](C)NC(=O)[C@@H]2CCCN2C(=O)[C@@H](Cc2ccccc2)N(C)C(=O)[C@H](Cc2ccccc2)N(C)C(=O)[C@H](CC(C)C)N(C)C(=O)[C@@H](C(C)C)NC1=O [Design D10.52, ILE DVAL *LEU *PHE *DPHE PRO ALA *DPHE ALA PRO] (cyclo(API[dV][NMeL][NMeF][dNMeF]PA[dNMeF])) | BQL | BQL | BQL |
| CC(C)C[C@@H]1C(=O)N[C@H](C(C)C)C(=O)N[C@@H](C)C(=O)N2CCC[C@H]2C(=O)N2CCC[C@H]2C(=O)N[C@@H](C)C(=O)N2CCC[C@@H]2C(=O)N[C@@H](Cc2ccccc2)C(=O)N2CCC[C@H]2C(=O)N[C@@H](C(C)C)C(=O)N1C [Design D10.53, ALA DPRO PHE PRO VAL *DLEU DVAL ALA PRO PRO] (cyclo(APPA[dP]FPV[dNMeL][dV])) | BQL | BQL | BQL |
| CC(C)C[C@@H]1NC(=O)[C@@H](Cc2ccccc2)NC(=O)[C@@H]2CCCN2C(=O)[C@H]2CCCN2C(=O)[C@@H]2CCCN2C(=O)[C@H](C)NC(=O)[C@H](Cc2ccccc2)N(C)C(=O)[C@H]2CCCN2C(=O)[C@@H](CC(C)C)NC(=O)[C@@H](C(C)C)NC1=O [Design D10.54, DVAL DLEU DPRO *PHE ALA PRO DPRO PRO DPHE LEU] (cyclo([dF]L[dV][dL][dP][NMeF]AP[dP]P)) | BQL | BQL | BQL |
| CC[C@H](C)[C@@H]1NC(=O)[C@H](C)NC(=O)[C@@H](CC(C)C)NC(=O)[C@H](CC(C)C)N(C)C(=O)[C@H](CC(C)C)NC(=O)[C@@H](Cc2ccccc2)N(C)C(=O)[C@@H]2CCCN2C(=O)[C@H]([C@@H](C)CC)NC(=O)[C@H](Cc2ccccc2)N(C)C(=O)[C@@H](CC(C)C)NC1=O [Design D10.55, DLEU ALA ILE DLEU *PHE ILE PRO *DPHE LEU *LEU] (cyclo(AI[dL][NMeF]IP[dNMeF]L[NMeL][dL])) | BQL | BQL | BQL |
| CC(C)C[C@H]1C(=O)N[C@@H](C)C(=O)N(C)CC(=O)N2CCC[C@@H]2C(=O)N(C)[C@@H](C(C)C)C(=O)N[C@@H](C(C)C)C(=O)N2CCC[C@H]2C(=O)N2CCC[C@@H]2C(=O)N[C@@H](C)C(=O)N[C@H](C(C)C)C(=O)N1C [Design D10.66, PRO DPRO ALA DVAL *LEU ALA *GLY DPRO *VAL VAL] (cyclo(A[Sar][dP][NMeV]VP[dP]A[dV][NMeL])) | BQL | BQL | BQL |
| CC(C)C[C@@H]1NC(=O)[C@H](CC(C)C)NC(=O)[C@H](C(C)C)NC(=O)[C@H](C)NC(=O)[C@@H]2CCCN2C(=O)[C@H]2CCCN2C(=O)[C@@H]2CCCN2C(=O)[C@H](C)N(C)C(=O)[C@@H](CC(C)C)N(C)C(=O)[C@@H]2CCCN2C(=O)[C@H](Cc2ccccc2)NC1=O [Design D11.7, PHE PRO *DLEU *ALA PRO DPRO PRO ALA VAL LEU LEU] (cyclo(AVLLFP[dNMeL][NMeA]P[dP]P)) | BQL | BQL | BQL |
| CC[C@H](C)[C@@H]1NC(=O)[C@H]2CCCN2C(=O)[C@H](C(C)C)NC(=O)[C@H](C(C)C)N(C)C(=O)[C@@H](C(C)C)NC(=O)[C@H](C(C)C)NC(=O)[C@H]2CCCN2C(=O)[C@@H]2CCCN2C(=O)[C@H](C)NC(=O)[C@@H](CC(C)C)N(C)C(=O)[C@H]2CCCN2C1=O [Design D11.8, PRO DPRO VAL DVAL *VAL VAL DPRO ILE DPRO *DLEU ALA] (cyclo(AP[dP]V[dV][NMeV]V[dP]I[dP][dNMeL])) | BQL | BQL | BQL |
| CC(C)C[C@@H]1NC(=O)[C@@H](C(C)C)NC(=O)[C@@H]2CCCN2C(=O)[C@H]2CCCN2C(=O)[C@H](Cc2ccccc2)NC(=O)[C@@H](C)NC(=O)[C@@H](CC(C)C)N(C)C(=O)[C@@H]2CCCN2C(=O)[C@H]2CCCN2C(=O)[C@@H](C(C)C)NC(=O)[C@@H](C)N(C)C1=O [Design D11.12, DVAL DPRO PRO *DLEU DALA PHE DPRO PRO DVAL LEU *DALA] (cyclo([dNMeL][dA]F[dP]P[dV]L[dNMeA][dV][dP]P)) | BQL | BQL | BQL |
| CC[C@H](C)[C@@H]1NC(=O)[C@H](CC(C)C)NC(=O)[C@H](Cc2ccccc2)NC(=O)[C@@H](C)NC(=O)[C@H]2CCCN2C(=O)[C@@H]2CCCN2C(=O)[C@H]2CCCN2C(=O)[C@H](CC(C)C)NC(=O)[C@@H](C(C)C)NC(=O)[C@@H](CC(C)C)N(C)C(=O)[C@@H]2CCCN2C1=O [Design D11.17, PRO *DLEU DVAL LEU DPRO PRO DPRO DALA PHE LEU ILE] (cyclo([dP][dA]FLIP[dNMeL][dV]L[dP]P)) | BQL | BQL | BQL |
